Ends that are not written are not given here.
Legend:
[1] = tested on: conscious mineralocorticoid hypertensive rats; assay: depressor response in conscious mineralocorticoid hypertensive rats; type: in vivo, rat (male Sprague-Dawley); settings: dose 300 μmole/kg., intravenous; DOCA hypertensive rats; MAP recorded for at least 4 hours
Protocol: The depressor response to test compounds in conscious mineralocorticoid hypertensive rats is determined according to the following procedure.
Male Sprague-Dawley rats (approximately 150 grams) are anesthetized with sodium pentobarbital and indwelling vascular catheters are implanted in the abdominal aorta and vena cava using the methods of Weeks et al., Biological Medicine, Vol. 104, p. 646 (1960).
Before closing the abdominal incision, a pellet containing 100 mg. of deoxycorticosterone acetate (DOCA) is placed in the peritoneal cavity. DOCA is released from the pellet at a constant rate for 21 days.
The rats are housed individually and given saline (0.9% sodium chloride) to drink and fed normal rat chow for the next 3 to 4 weeks. Afterwards, the catheters are opened and mean arterial pressure (MAP) is measured via a Statham pressure transducer and a strip chart recorder. Patency of the arterial catheter is maintained by the infusion of saline from a pressurized reservoir at approximately 10 to 15 μl/min.
Following 2 hours of acclimation, the test compound is injected intravenously. Each dose is delivered as 1.0 ml./kg. +0.03 ml. (an amount sufficient to fill the void volume of the catheter). The MAP is recorded for at least 4 hours.

[2] = tested on: conscious spontaneously hypertensive rats (SHR); assay: enhancement of the depressor response to exogenous ANP 99-126 in conscious spontaneously hypertensive rats (SHR); type: in vivo, rat (male SHR); settings: intravenous, 30 minutes before 3 nmole/kg. ANP 99-126; dose to increase the area under the blood pressure over time curve to 600 mm Hg. X minute
Protocol: The capacity of the test compounds to enhance the depressor response to exogenous ANP 99-126 in conscious spontaneously hypertensive rats (SHR) is determined according to the following procedure.
Indwelling vascular catheters are implanted in the abdominal aorta and vena cava of male SHR rats using the methods of Weeks et al. The rat is allowed at least one week recovery time. On the day of the experiment, the aortic catheter is opened and attached to a Statham transducer via a 3-way stream divider. This system allows for a continuous slow infusion of saline (approximately 10 to 15 μl/min.) from a pressurized reservoir to maintain patency of the arterial catheter. Mean arterial pressure (MAP) is continuously monitored on a strip-chart recorder.
Two hours after beginning the blood pressure measurements, the test compound (or the vehicle used to dissolve the compound) is injected intravenously (1.0 ml./kg.) and flushed in with 0.3 ml. of saline. 30 minutes later, a challenge of 3 nmole/kg. of ANP 99-126 is delivered (1.0 ml./kg. +0.3 ml. saline flush). Sufficient time is allowed after the ANP 99-126 injection to observe the maximal depressor response and a 50% recovery.
MAP is determined before ANP 99-126 administration and at 5 minute intervals until the blood pressure recovers by at least 50%. A mathematical model is used to calculate the area under the curve which extends from the time that the MAP falls to 50% of the maximal depressor response to the time of 50% recovery. Results are plotted as the log dose of inhibitor vs. the area under the curve.
The ED600 is the dose required to increase the area under the blood pressure over time curve for exogenous ANP to 600 mm Hg. X minute.

[3] = tested on: conscious spontaneously hypertensive rats; assay: renal function (sodium excretion) following intravenous administration of test compounds; type: in vivo, rat
Protocol: The renal function following administration of test compounds is determined according to the following procedure.
A catheter is contructed as follows. Pieces of 18 gauge metal tubing (about 1/4 inch in length) are inserted into two lengths of microbore Tygon tubing (0.04 inch inner diameter ×0.07 inch outer diameter). A short segment of Tygon tubing of larger diameter (0.104 inch inner diameter x 0.144 inch outer diameter) is sealed around both metal fittings. This end is to be implanted in the bladder. In order to keep the tip from becoming plugged by particulate matter, 4 holes are punched along its length.
To implant the catheters, male rats are anesthetized with sodium pentobarbital and the urinary bladder is exposed via a midline abdominal incision. A small slit is made in the dome of the urinary bladder and the tip of the catheter is inserted into the lumen. […]
During the course of the experiment, urine is collected in tared containers at specified intervals. Urine volume is determined gravimetrically (1 gram =1 ml.) and the rate of flow is calculated from the total volume/time of collection (ml./min). Sodium concentrations are measured using a Nova-1 Ion Selective Electrode Analyzer. Electrolyte excretion rates (μ Eq./min.) are calculated by multiplying the ion concentration (μ Eq./ml.) by the urine flow (mi./min.). […]

neutral endopeptidase [4] = biological target: T1, neutral endopeptidase (Rattus norvegicus, UniProt P07861); assay: biochemical; settings: enzyme purified from rat kidney; Dns-Gly-Phe-Arg 0.5 mM; pH 7.5; 37°, 30 minutes; inhibitor preincubated 10 minutes
T1 sequence (P07861 1-750): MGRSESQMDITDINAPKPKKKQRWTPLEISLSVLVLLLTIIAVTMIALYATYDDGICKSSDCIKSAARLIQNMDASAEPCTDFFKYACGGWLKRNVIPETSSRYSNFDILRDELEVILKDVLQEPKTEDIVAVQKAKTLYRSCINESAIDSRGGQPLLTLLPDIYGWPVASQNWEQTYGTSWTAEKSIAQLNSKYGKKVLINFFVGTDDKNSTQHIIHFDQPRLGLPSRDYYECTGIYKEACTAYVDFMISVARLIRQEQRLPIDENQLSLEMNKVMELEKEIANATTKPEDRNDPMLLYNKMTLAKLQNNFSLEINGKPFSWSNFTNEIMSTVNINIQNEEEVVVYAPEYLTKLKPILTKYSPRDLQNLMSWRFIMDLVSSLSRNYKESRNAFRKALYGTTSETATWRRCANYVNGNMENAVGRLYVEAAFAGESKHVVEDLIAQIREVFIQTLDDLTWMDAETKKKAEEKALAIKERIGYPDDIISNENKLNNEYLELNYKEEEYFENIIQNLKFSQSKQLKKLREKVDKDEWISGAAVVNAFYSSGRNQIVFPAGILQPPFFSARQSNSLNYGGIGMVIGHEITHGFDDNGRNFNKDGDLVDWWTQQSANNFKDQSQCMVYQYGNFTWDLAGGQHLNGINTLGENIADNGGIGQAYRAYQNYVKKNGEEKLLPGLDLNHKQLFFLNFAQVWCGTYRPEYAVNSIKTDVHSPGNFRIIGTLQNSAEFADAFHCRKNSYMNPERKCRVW
Protocol: The in vitro neutral endopeptidase activity is determined using a fluorometric assay procedure. The assay is based upon the cleavage of the fluorescent dansylated tripeptide Dns-Gly-Phe-Arg to form Dns-Gly. The latter is extracted from the acidified mixture by ethyl acetate and is strongly fluorescent.
The incubation mixture employed for the assay contains the substance Dns-Gly-Phe-Arg (0.5 mM), tris(hydroxymethyl)aminomethane -HCl buffer (pH 7.5, 50 mM), an enzyme preparation in 0.05% Triton X-100, and water or inhibitor diluted to a final volume of 0.25 ml. The enzyme preparation is purified from rat kidney according to the procedure described by Almenoff et al. in Biochemistry Vol. 22, p. 590-599 (1983). The inhibitor is preincubated for 10 minutes with the enzyme preparation and buffer before the reaction is initiated by the addition of the substrate. Incubation is carried out at 37° for 30 minutes and the reaction is stopped by the addition of 0.25 ml. 1N HCl and extraction of the Dns-Gly product into 1.5 ml. of ethyl acetate. Relative fluorescent intensity (RFI) of the ethyl acetate extract is measured using a Ferrand Spectofluorometer at excitation and emission wavelengths of 342 and 508 nm., respectively, corrected for the RFI of a zero-time control, and compared with assays lacking inhibitor.
Runs are made at different concentrations of test compound and by use of a mathematical model the IC50 is determined. The IC50 is the concentration of test compound that inhibits activity of the enzyme by 50%.

man = settings: cited from earlier work
neutral endopeptidase [5] = assay: inhibition of neutral endopeptidase; type: biochemical
neutral endopeptidase [6] = settings: in vivo; cited from earlier work
[7] = tested on: pig kidney microvillar membranes; settings: in vitro; cited from earlier work
enkephalinase = settings: cited from earlier work

Molecule | IC50 (neutral endopeptidase [4]) [nM] | Change in MAI [1] | ED600 [2] [µmol/kg] | further results
CC(C)C[C@H](NC(=O)C(CS)Cc1ccccc1)C(=O)O (single isomer, unassigned; isomer a) [Example 1, N-[2-(Mercaptomethyl)-1-oxo-3-phenylpropyl]-L-leucine (Isomer A)] | – | -65 ± 14 mm. of Hg. | 22.8 | increase in sodium excretion ([3]; intravenous 100 mg./kg.): 2.4 fold
human ANF 99-126: putative circulating hormone in man, a 28 amino acid peptide called human ANF 99-126 (SLRRSSCFGGRMDRIGAQSGLGCNSFRY; ends and bridges not checked; cysteine pairing not given here; UniProt P01160 124-151, looked up) | – | – | – | effect of exogenous administration to man (man): diuresis, natriuresis, and a fall in blood pressure
C[C@H](CS)C(=O)N[C@@H](Cc1ccccc1)C(=O)O [Example 39, (S)-N-(3-Mercapto-2-methyl-1-oxopropyl)-L-phenylalanine] | 15 | -55 ± 4 mm. of Hg. | – | –
CC(C)CC(CS)C(=O)N[C@@H](Cc1c[nH]c2ccccc12)C(=O)O (mixture of isomers) [Example 35, (±)-N-[2-(Mercaptomethyl)-4-methyl-1-oxopentyl]-L-tryptophan] | 6.9 | -56 ± 3 mm. of Hg. | 9.2 | –
O=C(O)CNC(=O)C(CS)Cc1ccccc1 (centres unmarked) [thiorphan, [(D,L)-3-mercapto-2-benzylpropanol]glycine] | – | – | – | inhibitor of enkephalinase in vitro (enkephalinase): nanomolar concentrations
CC(C)C[C@H](NC(=O)C(CS)Cc1ccccc1)C(=O)O (single isomer, unassigned; isomer b) [Example 36, N-[2-(Mercaptomethyl)-1-oxo-3-phenylpropyl]-L-leucine (isomer B)] | – | – | 8.22 | –

Continued, in another order:

IC50 (neutral endopeptidase [4]) [nM] | Molecule | Change in MAI [1] | ED600 [2] [µmol/kg] | further results
78 | C[C@H](NC(=O)[C@@H](S)Cc1ccccc1)C(=O)N1CCC[C@H]1C(=O)O [Example 66, (S)-1-[N-(2-Mercapto-1-oxo-3-phenylpropyl)-L-alanyl]-L-proline] | – | 2.93 | –
26 | O=C(O)CCCCCCNC(=O)C(CS)Cc1ccccc1 (centres unmarked) [Example 52, 7-[[2-(Mercaptomethy1)-1-oxo-3-phenylpropyl]amino]-heptanoic acid] | -41 ± 8 mm. of Hg. | 15.5 | increase in the rate of sodium excretion ([3]; intravenous 30 mg./kg. plus 3 mg./kg./min. for 20 minutes, conscious spontaneously hypertensive rats): 2.6 fold
3.8 | CC(C)C[C@H](NP(=O)(O)O[C@@H]1O[C@@H](C)[C@H](O)[C@@H](O)[C@H]1O)C(=O)N[C@@H](Cc1c[nH]c2ccccc12)C(=O)O [Example 72, N-(α-L-Rhamnopyranosyloxyhydroxyphosphinyl)-L-leucyl-L-tryptophan] | – | – | inhibition of neutral endopeptidase (neutral endopeptidase [5]): inhibits neutral endopeptidase; excretion of kinins (neutral endopeptidase [6]): increased excretion of kinins; sodium excretion (neutral endopeptidase [6]): increased sodium excretion; urinary kininase activity (neutral endopeptidase [6]): decreased urinary kininase activity; urine volume (neutral endopeptidase [6]): increased urine volume; hydrolysis of α-human atrial natriuretic peptide [7]: suppressed
6 | C[C@H](NC(=O)C(CS)Cc1ccccc1)C(=O)N1CCC[C@H]1C(=O)O (mixture of isomers) [Example 64, (±)-1-[N-[2-(Mercaptomethyl)-1-oxo-3-phenylpropyl]-L-alanyl]-L-proline] | -44 ± 5 mm. of Hg. | – | –

Reference: patent publication US5496805A, “Inhibitors of neutral endopeptidase” (priority 1990, dated 1996)
